Entries after “also recorded” stand apart in the source; their conditions may differ. Where two headings read alike, the source gives them in different places.
Key:
Design in all cases: species or system Lymantria dispar
[1] = system: male gypsy moth antenna response to mixed pheromone/modulator plume; assay: EAG peak broadening (PB) (Example 11); details: for activity (% peak broadening): mixed plume, 100 μg compound and 100 ng pheromone (puff v vs puff ii)
Method: A mixed pheromone/modulator plume could elicit a prolonged response (FIG. 1A, puff v; FIG. 2), and this was termed peak broadening (PB). PB was calculated from the EAG traces as follows: PB=100×(Δtv−Δtii)/Δtii
Where Δt was the width of the EAG peak (in s) from the start of the depolarization to the return to background potential.

[2] = system: male gypsy moth antenna response to pheromone (+)-1; assay: EAG short-term (STI) and long-term (LTI) inhibition of pheromone signaling (Example 5); details: for inhibition at 0.001 mg / inhibition at 0.01 mg / inhibition at 0.1 mg / inhibition at 100 µg, 0.1 mg: Lymantria dispar, mean ± S.E.; for inhibition at 0.001 mg: mixed plume (+)-1 100 ng + compound 1 μg; for inhibition at 0.001 mg / inhibition at 0.01 mg / inhibition at 0.1 mg: negative = enhancement, read-out: Activity (%): short-term inhibition (STI); for inhibition at 0.01 mg: mixed plume (+)-1 100 ng + compound 10 μg; for inhibition at 0.1 mg: mixed plume (+)-1 100 ng + compound 100 μg (puff v); for inhibition at 100 µg, 0.1 mg: pure (+)-1 100 ng plume following mixed plume with 100 μg compound, read-out: Activity (%): long-term inhibition (LTI)
Outline: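 Excised male gypsy moth antenna in saline pH 6.8 under purified air (300 mL/min); 0.3 s puffs: air, (+)-1 100 ng, (+)-1 plus compound 1, 10, 100 μg per cartridge, then (+)-1 alone. STI: mixed-puff air-corrected depolarization loss versus first pheromone puff; LTI: final pheromone-puff loss.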

[3] = system: response of L. dispar antennae to (+)-disparlure; assay: Competitive electroantennogram (EAG) screen, inhibition of response to (+)-disparlure (Example 4); details: for inhibition at 0.001 mg / inhibition at 0.01 mg / inhibition at 0.1 mg: Lymantria dispar, means ± S.E.; for inhibition at 0.001 mg: dose 1 μg on cartridge; for inhibition at 0.01 mg: dose 10 μg on cartridge; for inhibition at 0.1 mg: dose 100 μg on cartridge
Method: In this assay, libraries and individual compounds are tested for their ability to inhibit the antennal response to the sex attractant pheromone of the gypsy moth, (7R,8S) 2-methyl-7,8-epoxyoctadecane, also known as (+)-disparlure. The controls consisted of a puff of clean air (negative) or of air passed over a cartridge impregnated with (+)-disparlure (100 ng) (positive). The treatments consisted of 100 ng of (+)-disparlure in combination with a compound or library at 1, 10 or 100 μg, on a cartridge over which the air puff was passed. The small arrows above the trace denote the times where the air was puffed over the antenna.
For some compounds, such as the para Compounds 2c{n}, 2c{n,n} and libraries 3c{n,1-5}, EAG competitive assays were performed to investigate whether the diethers inhibit the response of L. dispar antennae to the main component of the sex attractant pheromone cis-(7R,8S)-epoxy-2-methyloctadecane [(+)-disparlure] (FIG. 4). For EAGs a male moth antenna was mounted and placed in front of a stimulus-delivery glass tubing (160×5 mm ID) with a side orifice (2 mm diam) near (2 cm) the distal opening. The tubing was connected to one port of an apparatus (Stimulus Controller CS-05, Syntech Research and Equipment, NL-1200BM Hilversum, The Netherlands) that generated a constant stream of clean air (300 ml/min). The second port of the apparatus was connected to a Pasteur pipette inserted through the side orifice of the stimulus-delivery tubing. The test stimulus was applied to a disc of Whatman #1 filter paper inside the Pasteur pipette and was discharged through a 0.3-sec pulse of air (600 ml/min) Receptor potentials of the antennae in response to test stimuli were recorded with a Syntech IDAC probe, amplifier and interfaced board, and were analyzed with EAG Syntech Software Version 2.4 (1996) Inhibition (%) was calculated as: % inhibition=(Dd−Ds)/Dd×100 (eq. 1)
Where Dd is the depolarization observed with pure disparlure (corrected for clean air background) and Ds is the depolarization with disparlure+sample. See FIG. 4 for a representative EAG inhibition assay trace.

Row | Structure (SMILES) | activity (% peak broadening) [1] [%] | inhibition at 0.001 mg [2] [%] | inhibition at 0.01 mg [2] [%] | inhibition at 0.1 mg [2] [%] | inhibition at 100 µg, 0.1 mg [2] [%] | inhibition at 0.001 mg [3] [%] | inhibition at 0.01 mg [3] [%] | inhibition at 0.1 mg [3] [%] | long-term inhibition (LTI) activity (in words) [2] | long-term inhibition (LTI) activity (in words) ([2]; listed as 3c{2, 3}) | inhibitory activity on antennal pheromone responses (in words) [3] | peak broadening / prolongation of the EAG signal (in words) ([1]; 1:1000 ratios)
1 | CCOc1ccc(OCC)cc1 [3c{2,2}, 1,4-Diethoxy benzene] | 71 ± 30 | 7 ± 12 | -19 ± 8 | -27 ± 15 | 17 ± 11 | 4 ± 13 | 45 ± 6 | -3 ± 13 |  |  |  | 
2 | CCCOc1ccc(OCC)cc1 [3c{2,3}, 1-ethoxy-4-propoxy benzene] | 94 ± 24 | 8 ± 20 | -30 ± 10 | -62 ± 50 | 58 ± 7 |  |  |  | strongest long-term inhibitor | most active |  | 
3 | CC(C)CCOc1ccc(OCCC(C)C)cc1 [3c{5,5}, 1,4-Di-(3-methyl-butyloxy) benzene] |  | 41 ± 14 | 4 ± 26 | 50 ± 9 | 7 ± 4 | 63 ± 12 | 38 ± 22 | 64 ± 11 |  |  | moderate inhibitory activity | 
4 | CCCOc1ccc(OCCC)cc1 [3c{3,3}, 1,4-Dipropoxy benzene] |  | -3 ± 13 | -60 ± 38 | -100 ± 40 | 29 ± 13 | 5 ± 16 | 55 ± 7 | -3 ± 15 |  |  | moderate inhibitory activity | 
5 | CCCOc1ccc(OC)cc1 [3c{1,3}, 1-methoxy-4-propoxy-benzene] | 175 ± 23 | 28 ± 16 | -2 ± 5 | 48 ± 14 | 39 ± 12 |  |  |  |  |  |  | significant prolongation of the EAG signal; also recorded: strongest peak broadening compound
6 | COc1ccc(OC)cc1 [3c{1,1}, 1,4-Dimethoxy benzene] | 77 ± 12 | 24 ± 8 | 23 ± 9 | 15 ± 25 | -7 ± 10 | 4 ± 6 | -8 ± 9 | 38 ± 7 |  |  |  | 

Reference: patent US9497963B2, “Methods and compositions for control of gypsy moth, Lymantria dispar” (Simon Fraser University, priority 2008, dated 2016)
